Reference: PMC11545999, “Angular-Substituted [1,4]Thiazino[3,4-a]Isoquinolines: Biological Evaluation and In Silico Studies on DPP-IV Inhibition” (International Journal of Molecular Sciences, 2024)

Target: T1, DPP-IV (Homo sapiens, UniProt P27487)
T1 construct: gene DPP4
Experiment: fluorogenic AMC substrate cleavage assay (SensoLyte AMC DPP-IV Assay Kit)
Format: biochemical

T1 sequence (P27487 39-766): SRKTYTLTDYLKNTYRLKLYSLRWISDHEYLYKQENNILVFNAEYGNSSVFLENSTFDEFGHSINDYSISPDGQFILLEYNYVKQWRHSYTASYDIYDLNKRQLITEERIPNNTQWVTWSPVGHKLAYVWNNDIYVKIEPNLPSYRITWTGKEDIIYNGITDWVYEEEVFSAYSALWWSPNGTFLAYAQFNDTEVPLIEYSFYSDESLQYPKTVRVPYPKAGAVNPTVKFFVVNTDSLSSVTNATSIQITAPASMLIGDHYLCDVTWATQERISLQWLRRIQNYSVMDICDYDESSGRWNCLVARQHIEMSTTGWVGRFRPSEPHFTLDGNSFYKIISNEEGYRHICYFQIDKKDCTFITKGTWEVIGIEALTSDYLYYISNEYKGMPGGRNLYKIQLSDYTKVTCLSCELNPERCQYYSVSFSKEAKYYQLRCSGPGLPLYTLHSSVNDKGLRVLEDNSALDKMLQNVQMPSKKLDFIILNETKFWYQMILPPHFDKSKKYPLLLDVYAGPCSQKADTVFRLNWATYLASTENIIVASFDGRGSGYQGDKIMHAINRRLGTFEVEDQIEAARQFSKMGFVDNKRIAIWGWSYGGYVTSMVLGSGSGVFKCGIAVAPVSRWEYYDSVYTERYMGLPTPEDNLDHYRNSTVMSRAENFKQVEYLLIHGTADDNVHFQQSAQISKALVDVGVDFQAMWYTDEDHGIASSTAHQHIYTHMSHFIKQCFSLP

| SMILES | IC50 [µM] |
| --- | --- |
| COc1cc2c(cc1OC)[C@@]1(c3ccc(F)cc3)[C@@H](C(=O)O)SCC(=O)N1CC2 (relative stereo) [4g] | 0.35 |
| COc1cc2c(cc1OC)C1C(C(=O)O)SCC(=O)N1CC2 (stereo not drawn) [4a] | 41.1 |
| COc1cc2c(cc1OC)[C@@]1(c3ccc(C(F)(F)F)cc3)[C@@H](C(=O)O)SCC(=O)N1CC2 (relative stereo) [4f] | 15.9 |
